Structures can show the parent of a compound that is named as a salt. Where two headings read alike, the source gives them in different places. Some results are limits rather than exact numbers.

This assay relates to caudate lesioned mouse. Briefly: caudate lesioned mouse test (anti-parkinson activity). The class given is in vivo. As to conditions: for responders at 26 µmol/kg / responders at 52 µmol/kg / responders at 6.5 µmol/kg / responders at 132 µmol/kg / responders at 1.6 µmol/kg / responders at 3.2 µmol/kg / responders at 6 µmol/kg: Mus musculus; for responders at 26 µmol/kg: dose 0.026 m. mole/kg; for responders at 52 µmol/kg: dose 0.052 m. mole/kg; for Molar Potency Ratio Claimed/Ref. Ester: claimed N-propyl ester vs corresponding N-methyl reference ester; for ED50: caudate lesioned mouse, read-out: ED50; for responders at 6.5 µmol/kg: dose 0.0065 m. mole/kg; for responders at 132 µmol/kg: dose 0.132 m. mole/kg; for responders at 1.6 µmol/kg: dose 0.0016 m. mole/kg; for responders at 3.2 µmol/kg: dose 0.0032 m. mole/kg; for responders at 6 µmol/kg: dose 0.006 m. mole/kg. Summed up:
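Mice with unilateral caudate lesions, recovered ≥14 days, kept only if circling toward lesion in all three periods after apomorphine 1.7 mg/kg i.p. Test drugs given in 1% gum tragacanth; doses as mg/kg free base.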

The mark [1] stands for this setting: 0.5 h, 1/2 h post-drug, read-out: No. Mice Affected/No. Mice Tested, 1/2 h (converted).
Where [2] appears, read: 1 h post-drug, read-out: No. Mice Affected/No. Mice Tested, 1 h (converted).
The mark [3] stands for this setting: 4 h post-drug, read-out: No. Mice Affected/No. Mice Tested, 4 h (converted).
The mark [4] stands for this setting: 6 h post-drug, read-out: No. Mice Affected/No. Mice Tested, 6 h (converted).
Setting [5] is: 24 h post-drug, read-out: No. Mice Affected/No. Mice Tested, 24 h.
[6] abbreviates: total, read-out: No. Mice Affected/No. Mice Tested, Total (converted).
Setting [7] is: 0.5 h, 1/2 h post-drug, read-out: No. Mice Affected/No. Mice Tested, 1/2 h.
The mark [8] stands for this setting: 1 h post-drug, read-out: No. Mice Affected/No. Mice Tested, 1 h.
The mark [9] stands for this setting: 2 h post-drug, read-out: No. Mice Affected/No. Mice Tested, 2 h.
[10] abbreviates: 4 h post-drug, read-out: No. Mice Affected/No. Mice Tested, 4 h.
Setting [11] is: 6 h post-drug, read-out: No. Mice Affected/No. Mice Tested, 6 h.
The mark [12] stands for this setting: total, read-out: No. Mice Affected/No. Mice Tested, Total.
The mark [13] stands for this setting: 2 h post-drug, read-out: No. Mice Affected/No. Mice Tested, 2 h (converted).

Turning to `CCCN1CCc2cccc3c2C1Cc1ccc(OC(=O)C(C)C)c(OC(=O)C(C)C)c1-3` (stereo not shown) [Ex. 1B, N-Propylnorapomorphine diisobutyrate], the “Molar Potency Ratio Claimed/Ref. Ester” value was ≥ 8. Moreover, under setting [1], the responders at 26 µmol/kg is 0% and the responders at 52 µmol/kg is 33.3%. In addition, under setting [2], the responders at 26 µmol/kg is 25% and the responders at 52 µmol/kg was 33.3%. Further, under setting [3], the responders at 26 µmol/kg is 50% and the responders at 52 µmol/kg is 33.3%. Further, under setting [4], the responders at 26 µmol/kg is 50% and the responders at 52 µmol/kg is 0%. In addition, under setting [5], the responders at 26 µmol/kg is 0% and the responders at 52 µmol/kg was 0%. Moreover, under setting [6], the responders at 26 µmol/kg is 50% and the responders at 52 µmol/kg was 33.3%.
Broadly, the ED50 is the midpoint of the dose-response relation. Take `CCCN1CCc2cccc3c2C1Cc1ccc(OC(=O)c2ccc(OC)cc2)c(OC(=O)c2ccc(OC)cc2)c1-3` (stereo not shown) [Ex. 1J, N-Propylnorapomorphine bis-4-methoxybenzoate]: the ED50 was 13 µmol/kg. In addition, the responders at 6.5 µmol/kg under setting [7] was 0%. The responders at 26 µmol/kg under setting [1] is 50%. Besides, the responders at 6.5 µmol/kg under setting [8] was 0%. Further, under setting [9], the responders at 6.5 µmol/kg is 0%. Also, the responders at 6.5 µmol/kg under setting [10] turned out to be 0%. Besides, under setting [11], the responders at 6.5 µmol/kg was found to be 0%. Also, under setting [5], the responders at 6.5 µmol/kg was 0% and the responders at 26 µmol/kg stood at 0%. The responders at 6.5 µmol/kg under setting [12] is 0%. Moreover, the responders at 26 µmol/kg under setting [2] was 100%. Besides, under setting [13], the responders at 26 µmol/kg is 75%. Under setting [3], the responders at 26 µmol/kg was 50%. Further, the responders at 26 µmol/kg under setting [4] is 50%. Further, the responders at 26 µmol/kg under setting [6] is 100%.
As for `CCCN1CCc2cccc3c2C1Cc1ccc(OC(=O)c2ccccc2C)c(OC(=O)c2ccccc2C)c1-3` (stereo not shown) [Ex. 1G, N-Propylnorapomorphine bis-2-methylbenzoate], the median effective dose (ED50) stood at 26 µmol/kg. Further, the responders at 26 µmol/kg under setting [1] is 25%. For the same molecule, the responders at 26 µmol/kg under setting [2] is 50%. Moreover, the responders at 26 µmol/kg under setting [13] was 50%. Under setting [3], the responders at 26 µmol/kg was 50%. In addition, the responders at 26 µmol/kg under setting [4] was 50%. In addition, the responders at 26 µmol/kg under setting [5] came out at 0%. Also, the responders at 26 µmol/kg under setting [6] is 50%.
Consider `CCCCC(=O)Oc1ccc2c(c1OC(=O)CCCC)-c1cccc3c1C(C2)N(CCC)CC3` (stereo not shown) [Ex. 2A, N-propylnorapomorphine dipentanoate hydrochloride], for which the “Molar Potency Ratio Claimed/Ref. Ester” value is listed as ≥ 3. For the same molecule, under setting [1], the responders at 26 µmol/kg was 0% and the responders at 132 µmol/kg is 50%. Moreover, under setting [2], the responders at 26 µmol/kg is 0% and the responders at 132 µmol/kg is 75%. Further, under setting [13], the responders at 26 µmol/kg is 0% and the responders at 132 µmol/kg is 75%. In addition, under setting [3], the responders at 26 µmol/kg is 0% and the responders at 132 µmol/kg was 75%. Under setting [4], the responders at 26 µmol/kg is 0% and the responders at 132 µmol/kg was 75%. Also, the responders at 26 µmol/kg under setting [5] was found to be 0%. For the same molecule, under setting [6], the responders at 26 µmol/kg was 0% and the responders at 132 µmol/kg was 75%. Moreover, the responders at 132 µmol/kg (24 h post-drug, read-out: No. Mice Affected/No. Mice Tested, 24 h (converted)) is 75%.
As to `CCCN1CCc2cccc3c2C1Cc1ccc(OC(=O)c2cc(OC)cc(OC)c2)c(OC(=O)c2cc(OC)cc(OC)c2)c1-3` (stereo not shown) [Ex. 1K, N-Propylnorapomorphine bis-3,5-dimethoxybenzoate hydrochloride], the responders at 1.6 µmol/kg under setting [7] stood at 0%; the responders at 1.6 µmol/kg under setting [8] was 0%; the responders at 1.6 µmol/kg under setting [9] was found to be 0%; the responders at 1.6 µmol/kg under setting [10] amounted to 0%; the responders at 1.6 µmol/kg under setting [11] worked out at 0%; the responders at 1.6 µmol/kg under setting [5] was found to be 0%. The responders at 1.6 µmol/kg under setting [12] came to 0%. Moreover, the responders at 3.2 µmol/kg by setting is: under setting [7], 0%; under setting [2], 25%; under setting [13], 50%; under setting [3], 50%; under setting [11], 0%; under setting [5], 0%. The responders at 3.2 µmol/kg under setting [6] was 50%. The responders at 6 µmol/kg reads like this: under setting [7], 0%; under setting [8], 0%; under setting [13], 75%; under setting [3], 75%; under setting [4], 50%; under setting [5], 0%. Also, under setting [6], the responders at 6 µmol/kg is 75%. The responders at 26 µmol/kg is 50% under setting [1]; 100% under setting [2]; 50% under setting [13]; 50% under setting [3]; 50% under setting [4]; 0% under setting [5]. Also, the responders at 26 µmol/kg under setting [6] was 100%.

These data come from US4126616A, “N-propylnorapomorphine diesters” (Hinshaw; William B., priority 1976, dated 1978).
